Measurements reported in patent US9084719B2, “Compositions and method for treating infection in cattle and swine” (Intervet Inc., priority 2003, dated 2015).
Like-named read-outs stand apart in the source and are kept apart here.

Test: Plasma levels of florfenicol / pharmacokinetic analysis in cattle after subcutaneous administration
Assay type: in vivo
Conditions: bovine, sc, 40 mg/kg, subcutaneous florfenicol solution, 40 mg per kg of body weight
Experimental: Twenty-four head of cattle were used in the study as described below and were administered the formulations of the present invention. Serial blood samples were drawn at time 0 prior to dosing, then at 0.5, 1, 3, 6, 9, 12, 24, 36, 48, 60 and 72 hours post injection. The animals received one of the following treatment regimens.
The study was carried out in bovines of approximately 6 months of age or more that weigh about 125 kg or more. Selection was based on health status appearance, tractability and body weight. […] Animals that had received medication or have participated in another study in the previous 14 days were excluded from this study.
Plasma Levels of florfenicol were taken as follows: Approximately 10 mL of blood was collected from each calf by jugular venipuncture into a Vacutainer® tube containing sodium EDTA and processed for plasma.
Pharmacokinetic Analysis was carried out as follows: Plasma concentrations of florfenicol was reported in the appropriate units (i.e. μg/ml or ng/mL). Plasma florfenicol concentration versus time data was graphically presented for each individual animal, and as mean concentrations for the overall sample population.

Cmax (FIG. 1, six cattle, read-out: Mean peak concentration (Cmax)): 6370 ng/mL
Tmax (FIG. 1, six cattle, read-out: Mean time to peak concentration (Tmax)): 5.5 h
Cmax (FIG. 1, six cattle, read-out: Range of peak concentration (Cmax)): 5080 to 7000 ng/mL
Tmax (FIG. 1, six cattle, read-out: Range of time to peak concentration (Tmax)): 3 to 6 h
Cmax (FIG. 2, six cattle, read-out: Mean peak concentration (Cmax)): 4250 ng/mL
Tmax (FIG. 2, six cattle, read-out: Mean time to peak concentration (Tmax)): 3.67 h
Cmax (FIG. 2, six cattle, read-out: Range of peak concentration (Cmax)): 3460 to 5000 ng/mL
Tmax (FIG. 2, six cattle, read-out: Range of time to peak concentration (Tmax)): 1 to 9 h
SMILES: CS(=O)(=O)c1ccc([C@@H](O)[C@@H](CF)NC(=O)C(Cl)Cl)cc1 [florfenicol, D-(threo)-1-p-methylsulfonyl phenyl-2-dichloroacetamido-3-fluoro-1-propanol]
